Experiments:
[1] = target: T1, recombinant KPC-2 (Klebsiella pneumoniae, UniProt Q9F663); experiment: KPC-2 inhibition assay, CENTA as reporter substrate; assay type: biochemical; conditions: for fold less active than 9a: IC50 vs KPC-2 relative to compound 9a
T1 construct: made in house; host or cells: E. coli BL21 (DE3)
Experimental: (§1) The blaKPC-2 gene was kindly provided by Prof. Sergei Vakulenko (University of Notre Dame du Lac, Indiana, USA) and cloned as already reported and transformed into competent E.coli BL21 (DE3) cells for protein expression. 50 mL of Tryptic Soy Broth (TSB) (50 mg/L kanamycin) were inoculated with fresh colonies and grown at 37°C. 4 mL of the overnight culture was used to inoculate 1.3 L of TSB (50 mg/L kanamycin) grown at 37°C with shaking to an optical density of 0.5 measured at 600 nm. Then expression of recombinant bla gene was induced by adding 1.0 mM IPTG (isopropyl-D-thiogalactopyranoside) and the cells were again allowed to grow at 20°C overnight. Bacteria were harvested by centrifugation at 4000 rpm for 20 minutes. The pelleted cells were resuspended in Tris-HCl 50 mM pH 7.4–7.5. Periplasmatic proteins were extracted as reported in the pET System Manual (TB055 10th Edition Rev. B 0403) and subsequently dialyzed in sodium acetate buffer (50 mM, pH 5.0). The protein was conveniently purified in a single step using a Macro-Prep High S resin and eluted using sodium acetate 50 mM pH 5.0 and a sodium chloride (NaCl) linear gradient from 100 to 500 mM. The purified protein was dialyzed overnight in sodium phosphate buffer 50 mM, pH 7.0 [31, 32].
(§2) The hydrolytic activity of KPC-2 was measured using the β-lactam substrates CENTA (100 uM, KM 70 uM) or nitrocefin (114 uM, KM 36 μM) in reaction buffer consisting of 50 mM of PB at pH 7.0 at 25°C with 0.01% v/v Triton X-100 to avoid compound aggregation and promiscuous inhibition.[33] Reactions were monitored using a Beckmann DU640 spectrophotometer at […] for CENTA and 480 nm wavelength for nitrocefin [34]. The test compounds were synthesized as described below or purchased from Enamine, TimTec, Vitas-M, ChemBridge, Otava, Life Chemicals or Apollo Scientific and assayed without further purification. Compounds were dissolved in dimethyl sulfoxide (DMSO) to a concentration of 25 mM and stored at -20°C. The highest concentration at which the compounds were tested was up to 1 mM (depending on their solubility). All experiments were performed in duplicate and the error never exceeded 5%. The reaction was typically initiated by adding KPC-2 to the reaction buffer last. To control for incubation effects, protein was added to the reaction buffer first, and the reaction was initiated by the addition of reporter substrate after 10 minutes of enzyme-compound incubation.
Fig 4 Inhibitory activity of compounds selected from virtual screening. ^[a]Assays were performed in duplicate (errors were less than 5%) with CENTA as reporter substrate (100 μM, km 70 μM). Kinetic were monitored at 25° by following the absorbance variation at λ = 405 nm. ^[b] If no IC50 has been measured, percent inhibition at the highest tested concentration is given in parentheses. For example, > 0.50 (26%) implies that the highest concentration tested was 0.50 mM; at this concentration, the enzyme was inhibited by 26%. Therefore, IC50> 0.50 mM. When % Inhibition was below 10% No Inibition (NI) is reported. ^[c]Assays were run after 10’ incubation of the inhibitor with KPC-2. Reaction was started by the addition of CENTA. […] 0 (11) | 32a: IC50 mM ^[a,b]: 1.24
Competitive inhibition mechanism and the Ki for compound 9a was determined by Lineweaver–Burk (LB) and Dixon plots.

[2] = test system: Kpn 53A8; experiment: MIC of meropenem, alone or 1:1 with compounds, KPC-2 clinical strain; assay type: cell-based, K. pneumoniae; conditions: strain Kpn 53A8
Experimental: The antimicrobial activity of the best hits 9a and 11a and their derivatives was studied in bacterial cell cultures to investigate their ability to cross the outer membrane reaching the periplasmic space, where KPC-2 is secreted and confined in Gram negative bacteria. Compounds were tested for synergy with the β-lactam antibiotic meropenem against four K. pneumoniae clinical strains, isolated from different patients at the Hospital Universitario Son Espases, Palma de Mallorca, Spain. […] The three additional strains harbored the blaKPC-2 gene and were resistant to meropenem (Table 2). […] However, against strain Kpn 53A8 the MIC value was lowered by a factor of two when meropenem was combined with compounds 32a, 1b, 2b, 5b and 6b while in combination with compound 11a the MIC value was reduced by 4 fold.

[3] = target: T1, recombinant KPC-2; experiment: KPC-2 inhibition assay, nitrocefin as reporter substrate; assay type: biochemical; conditions: for IC50: nitrocefin 114.28 μM (Km 36 μM), 25°, 485 nm
Experimental: as §1, §2
Kinetic were monitored at 25° by following the absorbance variation at λ = 485 nm. ^[b] If no IC50 has been measured, percent inhibition at the highest tested concentration is given in parentheses. […] When % Inhibition was below 10% No Inhibition (NI) is reported. TEXT PRINTED IN THE PICTURE: 11a: IC50 mM [a,b]: 0.036 | 1b: IC50 mM [a,b]: > 0.2 (25) | 2b: IC50 mM [a,b]: >0.6 (23) | 3b: IC50 mM [a,b]: Not tested not soluble | 4b: IC50 mM [a,b]: > 0.2 (16) | 5b: IC50 mM [a,b]: > 0.2 (13) | 6b: IC50 mM [a,b]: NI at 0.2 | 7b: IC50 mM [a,b]: >1.0 (30) | 8b: IC50 mM [a,b]: > 1.0 (37) | 9b: IC50 mM [a,b]: NI at 0.5 | 10b: IC50 mM [a,b]: NI at 0.5 | 11b: IC50 mM [a,b]: > 1.0 (37) | 12b: IC50 mM [a,b]: NI at 0.5 | 13b: IC50 mM [a,b]: NI at 0.5 | 14b: IC50 mM [a,b]: >500 (20) DOUBTS OF THE COPYIST ABOUT THIS PICTURE: column head: raised note printed very small, read as [a,b]

[4] = CENTA 100 μM (km 70 μM), 25°, 405 nm, no pre-incubation, read-out: IC50
[5] = read-out: percent inhibition at the highest tested concentration
[6] = CENTA 100 μM, after 10' incubation of the inhibitor with KPC-2, read-out: IC50

T1 sequence (Q9F663 25-293, looked up): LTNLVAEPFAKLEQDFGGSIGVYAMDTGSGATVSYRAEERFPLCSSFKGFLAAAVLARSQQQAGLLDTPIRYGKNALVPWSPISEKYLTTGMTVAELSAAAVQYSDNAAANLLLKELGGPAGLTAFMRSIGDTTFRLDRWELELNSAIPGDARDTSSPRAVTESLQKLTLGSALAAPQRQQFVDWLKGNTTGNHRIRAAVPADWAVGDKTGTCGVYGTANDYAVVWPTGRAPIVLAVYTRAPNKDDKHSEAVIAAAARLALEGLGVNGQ

COc1ccc2[nH]nc(C(=O)O)c2c1 [1a]
IC50 [1, 4]: > 330 µM
inhibition at 330 µM [1, 5]: 30%

O=S(=O)(Nc1cccc(-c2nnn[nH]2)c1)c1cccc(F)c1 [1b, N-(3-(1H-tetrazol-5-yl)phenyl)-3-fluorobenzenesulfonamide]
fold reduction of meropenem MIC in combination with compound [2]: two
IC50 [3]: > 200 µM
inhibition at 200 µM [3, 5]: 25%

COc1ccc(-c2cn[nH]c2C(=O)O)c(OC)c1 [2a]
IC50 [1, 4]: > 500 µM
inhibition at 500 µM [1, 5]: 38%

O=[N+]([O-])c1cccc(S(=O)(=O)Nc2cccc(-c3nnn[nH]3)c2)c1 [2b, N-(3-(1H-tetrazol-5-yl)phenyl)-3-nitrobenzenesulfonamide]
fold reduction of meropenem MIC in combination with compound [2]: two
IC50 [3]: > 600 µM
inhibition at 600 µM [3, 5]: 23%

Cc1c(-c2cc(C(=O)O)no2)cnn1C [3a]
IC50 [1, 4]: > 250 µM
inhibition at 250 µM [1, 5]: 13%

Cn1cc(-c2cc(C(=O)O)no2)cn1 [4a]
IC50 [1, 4]: > 250 µM
inhibition at 250 µM [1, 5]: 12%

CC(=O)Nc1ccc(S(=O)(=O)Nc2cccc(-c3nnn[nH]3)c2)cc1 [4b, N-(4-(N-(3-(1H-tetrazol-5-yl)phenyl)sulfamoyl)phenyl)acetamide]
IC50 [3]: > 200 µM
inhibition at 200 µM [3, 5]: 16%

COc1ccc(NS(C)(=O)=O)cc1 [5a]
IC50 [1, 4]: > 500 µM
inhibition at 500 µM [1, 5]: 13%

O=S(=O)(Nc1cccc(-c2nnn[nH]2)c1)c1cccc2cccnc12 [5b, N-(3-(1H-tetrazol-5-yl)phenyl)quinoline-8-sulfonamide]
fold reduction of meropenem MIC in combination with compound [2]: two
IC50 [3]: > 200 µM
inhibition at 200 µM [3, 5]: 13%

CS(=O)(=O)Nc1ccc(C(N)=O)cc1 [6a]
IC50 [1, 4]: > 1000 µM
inhibition at 1000 µM [1, 5]: 18%

O=S(=O)(Nc1cccc(-c2nnn[nH]2)c1)c1ccc(Cl)cc1 [6b, N-(3-(1H-tetrazol-5-yl)phenyl)-4-chlorobenzenesulfonamide]
fold reduction of meropenem MIC in combination with compound [2]: two
inhibition at 200 µM [3, 5]: < 10%

CCOc1ccc(NS(C)(=O)=O)cc1 [7a]
IC50 [1, 4]: > 1000 µM
inhibition at 1000 µM [1, 5]: 12%

O=S(=O)(/C=C/c1cccc(Br)c1)Nc1cccc(-c2nnn[nH]2)c1 [7b]
IC50 [3]: > 1000 µM
inhibition at 1000 µM [3, 5]: 30%

CC(=O)Nc1cccc(-c2nnn[nH]2)c1 [8a]
IC50 [1, 4]: > 500 µM
inhibition at 500 µM [1, 5]: 37%

Cc1cc(C(=O)O)cc(S(=O)(=O)Nc2cccc(-c3nnn[nH]3)c2)c1C [8b]
IC50 [3]: > 1000 µM
inhibition at 1000 µM [3, 5]: 37%

Cc1c(Br)cc(S(=O)(=O)Nc2cccc(-c3nnn[nH]3)c2)cc1[N+](=O)[O-] [9b]
inhibition at 500 µM [3, 5]: < 10%

O=C(Nc1cccc(-c2nn[nH]n2)c1)c1cccs1 [10a]
IC50 [1, 6]: 70 µM

O=S(=O)(Nc1cccc(-c2nnn[nH]2)c1)c1ccc(S(=O)(=O)N2CCCC2)cc1 [10b]
inhibition at 500 µM [3, 5]: < 10%

O=C(Nc1cccc(-c2nnn[nH]2)c1)c1cccc(F)c1 [11a, N-(3-(1H-tetrazol-5-yl)phenyl)-3-fluorobenzamide]
fold reduction of meropenem MIC in combination with compound [2]: 4 fold
IC50 [1, 6]: 36 µM
Ki ([1]; Cheng-Prusoff equation from IC50, assuming competitive inhibition, read-out: Ki (calculated)): 14.8 µM
ligand efficiency (LE) ([1]; vs KPC-2): 0.28 kcal/mol/non-hydrogen atom
mode of inhibition ([1]; vs KPC-2): competitive inhibitors

Cc1nc2cc(S(=O)(=O)Nc3cccc(-c4nnn[nH]4)c3)ccc2n1-c1ccccc1 [11b]
IC50 [3]: > 1000 µM
inhibition at 1000 µM [3, 5]: 37%

Brc1cc2c(cc1-c1nnn[nH]1)OCO2 [12a]
IC50 [1, 6]: 700 µM

O=c1c2ccc(S(=O)(=O)Nc3cccc(-c4nnn[nH]4)c3)cc2nc2n1CCCCC2 [12b]
inhibition at 500 µM [3, 5]: < 10%

NC(=O)c1ccc(-c2nnn[nH]2)cc1 [13a]
inhibition at 250 µM [1, 5]: < 10%

NS(=O)(=O)c1ccc(Cl)c(S(=O)(=O)Nc2cccc(-c3nnn[nH]3)c2)c1 [13b]
inhibition at 500 µM [3, 5]: < 10%

Cn1c(=O)c2n[nH]c(=O)nc2n(C)c1=O [14a]
IC50 [1]: > 1000 µM
inhibition at 1000 µM [1, 5]: 26%

O=S(=O)(Nc1cccc(-c2nnn[nH]2)c1)c1ccc(C(F)(F)F)cc1 [14b]
IC50 [3]: > 500 µM

CC(C)S(=O)(=O)Nc1ccc2c(c1)C(=O)N(C)CCO2 [15a]
IC50 [1, 4]: > 660 µM
inhibition at 660 µM [1, 5]: 38%

Cc1nn(CC(=O)O)c2[nH]c(=O)cc(C(F)F)c12 [16a]
IC50 [1, 4]: > 1000 µM
inhibition at 1000 µM [1, 5]: 17%

O=c1ccc(O)nn1-c1nnn[nH]1 [17a]
IC50 [1, 4]: > 1000 µM
inhibition at 1000 µM [1, 5]: 23%

O=C(NC1CC1)c1ccc(-c2nnn[nH]2)cc1 [18a]
IC50 [1, 4]: > 1000 µM
inhibition at 1000 µM [1, 5]: 18%

COc1ccc2nc(C(=O)O)[nH]c2c1 [19a]
IC50 [1, 4]: 880 µM
fold less active than 9a [1]: 6 fold

CCOc1cc(C(=O)O)nc2ccc(OC)cc12 [20a]
IC50 [1, 6]: > 500 µM
inhibition at 500 µM [1, 5]: 28%

COCc1nc2cc(NS(C)(=O)=O)ccc2o1 [21a]
IC50 [1, 4]: > 1000 µM
inhibition at 1000 µM [1, 5]: 12%

CCS(=O)(=O)Nc1cc(-c2ccncc2)n[nH]1 [22a]
inhibition at 1000 µM [1, 5]: < 10%

CN(Cc1cnccn1)Cc1cccc(C(=O)O)n1 [23a]
IC50 [1, 6]: > 1000 µM
inhibition at 1000 µM [1, 5]: 26%

Cc1n[nH]c(C)c1/C=C/c1cc(C(=O)O)ncn1 [24a]
IC50 [1, 4]: > 100 µM
inhibition at 100 µM [1, 5]: 41%

O=C(NCc1nnnn1-c1ccccc1)c1cccnc1O [25a]
IC50 [1, 4]: > 400 µM
inhibition at 400 µM [1, 5]: 26%

Cc1nn(CC(=O)O)c2nccc(-c3cnn(C)c3)c12 [26a]
IC50 [1, 4]: > 830 µM
inhibition at 830 µM [1, 5]: 18%

Cn1nccc1-c1cc(C(=O)O)n[nH]1 [27a]
inhibition at 500 µM [1, 5]: < 10%

COc1cc(OC)c2cc(C(=O)O)nnc2c1 [28a]
IC50 [1, 4]: > 500 µM
inhibition at 500 µM [1, 5]: 14%

Cc1nn(CC(=O)O)c(C)c1NS(=O)(=O)CC(F)(F)F [29a]
IC50 [1, 4]: > 1000 µM
inhibition at 1000 µM [1, 5]: 15%

O=C(O)Cc1c[nH]c2ncnn2c1=O [30a]
inhibition at 1000 µM [1, 5]: < 10%

CS(=O)(=O)Nc1ccc2oc(=O)sc2c1 [31a]
IC50 [1, 4]: > 1000 µM
inhibition at 1000 µM [1, 5]: 11%

COc1ccc2nc(N)sc2c1 [32a]
fold reduction of meropenem MIC in combination with compound [2]: two
fold less active than 9a [1]: 8 fold

— paper PMC6264499, “In silico identification and experimental validation of hits active against KPC-2 β-lactamase” (PLoS ONE, 2018)
